Laboratory results published in PubChem BioAssay (NCI).
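48-hour exposure; five concentrations; linearly interpolated endpoints. The concentration for 50% growth inhibition is given as GI50. TGI marks complete inhibition of growth.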

Tests used:
Assay in all cases: NCI anticancer screen, dose series, 48 h
[1] = tested on: A498 renal
[2] = tested on: OVCAR-3 ovarian
[3] = tested on: HCT-15 colon
[4] = tested on: SR leukemia
[5] = tested on: HL-60(TB) leukemia
[6] = tested on: NCI-H23 lung
[7] = tested on: HCT-116 colon
[8] = tested on: MDA-MB-231 breast
[9] = tested on: LOX IMVI melanoma
[10] = tested on: OVCAR-4 ovarian

`C=C1C(=O)O[C@H]2[C@H]1CC/C(COC(=O)c1cc3ccccc3s1)=C\CC[C@@]1(C)O[C@@H]21` was tested, and the GI50 [1] was 10.1 µM, the TGI [1] was 21.8 µM and the GI50 [2] was 0.446 µM. The TGI [2] was 1.66 µM, the GI50 [3] was 0.4 µM and the TGI [3] was 1.79 µM. The GI50 [4] was 0.52 µM, the TGI [4] was 4.54 µM and the GI50 [5] was 1.89 µM. The TGI [5] was 5.53 µM, the GI50 [6] was 1.74 µM and the TGI [6] was 3.84 µM. It also gave a GI50 [7] of 0.591 µM, a TGI [7] of 2.1 µM and a GI50 [8] of 1.97 µM. The TGI [8] was 4.35 µM, the GI50 [9] was 0.206 µM and the TGI [9] was 0.509 µM. The GI50 [10] was 2.08 µM and the TGI [10] was 4.57 µM.

In the case of `C/C=C(\C)CC/C=C/CO[Si](C)(C)C(C)(C)C`, the TGI [1] is reported as > 100 µM, the TGI [2] is reported as > 100 µM and the TGI [3] is reported as > 100 µM. The TGI [4] was 56.3 µM, the TGI [5] was 52.1 µM and the TGI [6] was > 100 µM. For the same compound, the TGI [7] was > 100 µM, the TGI [8] was > 100 µM and the TGI [9] was 49.9 µM. The TGI [10] was > 100 µM.

`O=C1/C(=C/c2ccc(O)cc2)CSc2ccc(Cl)cc21` was tested, and the GI50 [1] was 15 µM, the TGI [1] was 28.4 µM and the GI50 [2] was 5.69 µM. For the same compound, the TGI [2] was 19.4 µM, the GI50 [3] was 8.31 µM and the TGI [3] was 21.9 µM. The GI50 [4] was 2.14 µM, the TGI [4] was > 100 µM and the GI50 [5] was 2.27 µM. For the same compound, the TGI [5] was > 100 µM, the GI50 [6] was 19.3 µM and the TGI [6] was 46 µM. For the same compound, the GI50 [7] was 7.08 µM, the TGI [7] was > 100 µM and the GI50 [8] was 17.8 µM. The TGI [8] was 44.3 µM, the GI50 [9] was 2.63 µM and the TGI [9] was 8.75 µM. The GI50 [10] was 21.7 µM and the TGI [10] was > 100 µM.

With `C=C(C)C1CCC2(C(=O)O)CCC3(C)C(CCC4C5(C)CCC(OC(=O)NCc6ccccc6)C(C)(C)C5CCC43C)C12` (centres undefined) the GI50 [1] was 2.57 µM, the TGI [1] was > 100 µM and the GI50 [2] was 2.04 µM. For the same compound, the TGI [2] was 13.9 µM, the GI50 [3] was 3.74 µM and the TGI [3] was > 100 µM. For the same compound, the GI50 [4] was 2.22 µM, the TGI [4] was > 100 µM and the GI50 [5] was 2.39 µM. It also gave a TGI [5] of 28.1 µM, a GI50 [6] of 2.31 µM and a TGI [6] of 44 µM. For the same compound, the GI50 [7] was 2.24 µM, the TGI [7] was 19.3 µM and the GI50 [8] was 5.69 µM. For the same compound, the TGI [8] was 54.3 µM, the GI50 [9] was 4.84 µM and the TGI [9] was > 100 µM. The GI50 [10] was 3.8 µM and the TGI [10] was > 100 µM.

In the case of `Cc1ccc(NC(=O)NCCCOc2ccc(N3C(N)=NC(N)=NC3(C)C)cc2Cl)cc1S(=O)(=O)F`, the GI50 [1] is reported as 75.5 µM, the TGI [1] is reported as > 100 µM and the GI50 [2] is reported as 8.6 µM. For the same compound, the TGI [2] was > 100 µM, the GI50 [3] was > 100 µM and the TGI [3] was > 100 µM. The GI50 [4] was 0.724 µM, the TGI [4] was > 100 µM and the GI50 [5] was 0.775 µM. The TGI [5] was > 100 µM, the GI50 [6] was 5 µM and the TGI [6] was > 100 µM. For the same compound, the GI50 [7] was 2.22 µM, the TGI [7] was > 100 µM and the GI50 [8] was 11.4 µM. The TGI [8] was > 100 µM, the GI50 [9] was 4.19 µM and the TGI [9] was > 100 µM. The GI50 [10] was 15.1 µM and the TGI [10] was > 100 µM.

For `C/C(=N\Nc1ccc(Cl)cn1)c1ccccn1`, the GI50 [1] was 0.174 µM, the TGI [1] was 1.05 µM and the TGI [2] was 14.9 µM. For the same compound, the GI50 [3] was 0.0658 µM, the TGI [3] was > 50.4 µM and the GI50 [4] was 0.0556 µM. The TGI [4] was > 40.9 µM, the GI50 [5] was 0.0359 µM and the TGI [5] was 1.08 µM. For the same compound, the GI50 [6] was 0.0674 µM, the TGI [6] was > 100 µM and the GI50 [7] was 0.0201 µM. The TGI [7] was > 33.8 µM, the GI50 [8] was 0.0652 µM and the TGI [8] was > 100 µM. For the same compound, the GI50 [9] was 0.113 µM, the TGI [9] was > 24.2 µM and the GI50 [10] was 0.0485 µM. For the same compound, the TGI [10] was > 59.4 µM.

`CC[C@H](C)[C@H]1O[C@]2(C=C[C@@H]1C)C[C@@H]1C[C@@H](C/C=C(\C)[C@@H](O[C@H]3C[C@H](OC)[C@@H](O[C@H]4C[C@H](OC)[C@@H](NC)[C@H](C)O4)[C@H](C)O3)[C@@H](C)/C=C/C=C3\CO[C@@H]4[C@H](O)C(C)=C[C@@H](C(=O)O1)[C@]34O)O2` was tested, and the GI50 [1] was 2.68 µM, the TGI [1] was 11.6 µM and the GI50 [2] was 3.44 µM. For the same compound, the TGI [2] was 11.8 µM, the GI50 [3] was 1.78 µM and the TGI [3] was 4.46 µM. The GI50 [4] was 1.49 µM, the TGI [4] was 4.17 µM and the GI50 [5] was 1.88 µM. It also gave a TGI [5] of 3.81 µM, a GI50 [6] of 2.73 µM and a TGI [6] of 8.34 µM. The GI50 [7] was 2 µM, the TGI [7] was 5.12 µM and the GI50 [8] was 2 µM. For the same compound, the TGI [8] was 4.4 µM, the GI50 [9] was 1.68 µM and the TGI [9] was 3.13 µM. It also gave a GI50 [10] of 3.3 µM and a TGI [10] of 13.4 µM.

Compound `COc1ccc(-c2nnc(COc3ccc(NC(=O)Nc4ccc(Cl)c(C(F)(F)F)c4)cc3F)o2)cc1` has a GI50 [1] of 3.19 µM, a TGI [1] of 20 µM and a GI50 [2] of 3.02 µM. It also gave a TGI [2] of 10.5 µM, a GI50 [3] of 2.74 µM and a TGI [3] of 33 µM. It also gave a GI50 [4] of 1.39 µM, a TGI [4] of 4.09 µM and a GI50 [5] of 2.41 µM. The TGI [5] was 6.12 µM, the GI50 [6] was 3.12 µM and the TGI [6] was 14.6 µM. It also gave a GI50 [7] of 2.49 µM, a TGI [7] of 11.7 µM and a GI50 [8] of 1.91 µM. For the same compound, the TGI [8] was 8.72 µM, the GI50 [9] was 2.93 µM and the TGI [9] was > 100 µM. The GI50 [10] was 2.93 µM and the TGI [10] was 13.7 µM.
